From patent publication US20260207761A1, “USE OF DRUG CONJUGATE IN TREATMENT OF TUMOR DISEASE AND METHOD” (priority 2023, published 2026)
Read-outs that look alike come from different tables or passages of the source.

What was measured:
[1] = for exposure to toxin molecules: 50 mg/kg, after the last administration
[2] = Trial Example 4: pharmacokinetic study, dose-escalation cohort
[3] = conjugate A 25 mg/kg, female, Day 1
[4] = conjugate A 25 mg/kg, female, Day 43
[5] = conjugate A 25 mg/kg, male, Day 1
[6] = conjugate A 25 mg/kg, male, Day 43
[7] = conjugate A 50 mg/kg, female, Day 1
[8] = conjugate A 50 mg/kg, female, Day 43
[9] = conjugate A 50 mg/kg, male, Day 1
[10] = conjugate A 50 mg/kg, male, Day 43
[11] = conjugate A 75 mg/kg, female, Day 1
[12] = conjugate A 75 mg/kg, female, Day 43
[13] = conjugate A 75 mg/kg, male, Day 1
[14] = conjugate A 75 mg/kg, male, Day 43

CC[C@@]1(O)C(=O)OCc2c1cc1n(c2=O)Cc2c-1nc1ccccc1c2CCN(C(C)C)S(C)(=O)=O [toxins]
exposure to toxin molecules ([1]; female monkeys): 5860 ng·h/mL | exposure to toxin molecules ([1]; male monkeys): 3850 ng·h/mL | AUClast of toxins [1, 3]: 1430 ng·h/mL | Cmax of toxins [1, 3]: 38.3 ng/mL | AUClast of toxins [1, 4]: 1860 ng·h/mL | Cmax of toxins [1, 4]: 65.1 ng/mL | AUClast of toxins [1, 5]: 1790 ng·h/mL | Cmax of toxins [1, 5]: 49.0 ng/mL | AUClast of toxins [1, 6]: 2570 ng·h/mL | Cmax of toxins [1, 6]: 64.5 ng/mL | AUClast of toxins [1, 7]: 3970 ng·h/mL | Cmax of toxins [1, 7]: 113 ng/mL | AUClast of toxins [1, 8]: 3850 ng·h/mL | Cmax of toxins [1, 8]: 127 ng/mL | AUClast of toxins [1, 9]: 4490 ng·h/mL | Cmax of toxins [1, 9]: 94.0 ng/mL | AUClast of toxins [1, 10]: 5860 ng·h/mL | Cmax of toxins [1, 10]: 146 ng/mL | AUClast of toxins [1, 11]: 5120 ng·h/mL | Cmax of toxins [1, 11]: 132 ng/mL | AUClast of toxins [1, 12]: 4680 ng·h/mL | Cmax of toxins [1, 12]: 137 ng/mL | AUClast of toxins [1, 13]: 5420 ng·h/mL | Cmax of toxins [1, 13]: 132 ng/mL | AUClast of toxins [1, 14]: 4080 ng·h/mL | Cmax of toxins [1, 14]: 110 ng/mL | plasma exposure of the free payload, AUC, relative to conjugate A ([2]; first 4-week period): ~5% | plasma exposure of the free payload, Cmax, relative to conjugate A ([2]; first 4-week period): about 6% | half-life ([2]; patients, biweekly dosing regimen): ~49 h
